Literature values as cited in article PMC12521730, “Quantitative dual-isotope preclinical SPECT/CT imaging and biodistribution of the mercury-197m/g theranostic pair with [^197m/gHg]HgCl2 and a [^197m/gHg]Hg-tetrathiol complex as a platform for radiopharmaceutical development” (EJNMMI Radiopharmacy and Chemistry, 2025).

What was measured:
[1] = 24 h; ref Randhawa et al. [2023]; cited from earlier work
[2] = design: method as in Randhawa et al. [2023]; settings: 72 h; ref Randhawa et al. [2023]; cited from earlier work

SMILES: O=C(CN1CCSCCSCCSCCSCC1)NCc1ccccc1.[Hg+2] [NS4-BA complex]
- intact complex in human serum [1]: 74 ± 7%
- intact complex when challenged against GSH [2]: 92 ± 1%
